Measured values taken from patent US20190388421A1, “NOVEL COMPOUNDS AND PHARMACEUTICAL COMPOSITIONS THEREOF FOR THE TREATMENT OF FIBROSIS” (Galapagos NV, priority 2016, published 2019).

Experiments:
[1] = molecular target: T1, human GPCR sphingosine 1-phosphate receptor 2 (S1PR2) (Homo sapiens, UniProt O95136); assay: S1P2 antagonist assay (Ca2+ flux, S1P at EC80); type: cell-based; conditions: CHO-S1PR2 cells, highest concentration 20 μM
T1 construct: host or cells: CHO
How it was run: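 CHO cells stably overexpressing human S1PR2, serum-starved 1 h and loaded with Fluo8 dye, were read for 3 min after compound addition, then stimulated with S1P at EC80 after 15 min at 37 °C. Top concentration 20 μM in a 10-point 1/3 series; Ca2+ fluorescence ratio normalized to vehicle and S1P EC80, giving EC50.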

[2] = molecular target: T2, human GPCR sphingosine 1-phosphate receptor 1 (S1PR1) (Homo sapiens, UniProt P21453); assay: S1PR1 selectivity assay (Ca2+ flux, antagonist); type: cell-based; conditions: S1P1 antagonist EC50, CHO cells overexpressing human S1PR1 and Gq protein
T2 construct: host or cells: CHO
T2 sequence (P21453 whole entry): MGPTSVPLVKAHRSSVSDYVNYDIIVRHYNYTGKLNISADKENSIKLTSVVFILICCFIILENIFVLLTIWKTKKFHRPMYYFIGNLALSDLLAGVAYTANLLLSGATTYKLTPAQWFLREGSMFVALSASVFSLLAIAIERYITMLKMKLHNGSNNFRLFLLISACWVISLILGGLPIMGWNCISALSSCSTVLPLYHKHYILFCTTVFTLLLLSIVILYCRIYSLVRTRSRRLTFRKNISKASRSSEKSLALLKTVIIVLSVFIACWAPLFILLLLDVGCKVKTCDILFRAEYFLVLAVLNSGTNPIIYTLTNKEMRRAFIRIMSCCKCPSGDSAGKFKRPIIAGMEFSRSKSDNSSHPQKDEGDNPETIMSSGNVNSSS
How it was run: (§1)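 CHO cells stably overexpressing human S1PR1 or S1PR5 with Gq were preincubated with compound 15 min at 37 °C, then stimulated with S1P at EC80 (S1PR1) or an S1PR5-specific agonist (S1PR5). Ca2+ fluorescence was read for 3 min; 10-point 1/3 dilutions from 20 μM final, normalized to vehicle and EC80 trigger, gave EC50.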

[3] = molecular target: T3, human GPCR sphingosine 1-phosphate receptor 5 (S1PR5) (Homo sapiens, UniProt Q9H228); assay: S1PR5 selectivity assay (Ca2+ flux, antagonist, S1PR5 specific agonist trigger); type: cell-based; conditions: S1P5 antagonist EC50, CHO cells overexpressing human S1PR5 and Gq protein
T3 construct: host or cells: CHO
T3 sequence (Q9H228 whole entry): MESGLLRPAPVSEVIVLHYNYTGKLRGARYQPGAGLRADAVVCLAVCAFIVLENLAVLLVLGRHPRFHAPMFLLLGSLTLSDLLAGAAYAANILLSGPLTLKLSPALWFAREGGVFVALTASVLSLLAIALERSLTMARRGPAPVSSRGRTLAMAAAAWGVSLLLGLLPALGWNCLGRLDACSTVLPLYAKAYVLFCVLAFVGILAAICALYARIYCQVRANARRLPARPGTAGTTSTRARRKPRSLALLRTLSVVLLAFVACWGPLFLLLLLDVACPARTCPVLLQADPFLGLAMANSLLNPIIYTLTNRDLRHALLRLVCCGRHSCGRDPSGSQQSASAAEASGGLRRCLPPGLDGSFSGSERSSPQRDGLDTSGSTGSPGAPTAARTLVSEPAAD
How it was run: as §1

S1PR2 = molecular target: T4, S1PR2 (Homo sapiens, UniProt O95136); assay: GTP-γS binding assay ([35S]GTPγS, S1P at EC80, S1PR2 membranes); type: biochemical; conditions: membranes from stable cell line over expressing S1PR2, read-out: S1PR2 EC
T4 construct: expressed in transfected cells
T4 sequence (O95136 whole entry): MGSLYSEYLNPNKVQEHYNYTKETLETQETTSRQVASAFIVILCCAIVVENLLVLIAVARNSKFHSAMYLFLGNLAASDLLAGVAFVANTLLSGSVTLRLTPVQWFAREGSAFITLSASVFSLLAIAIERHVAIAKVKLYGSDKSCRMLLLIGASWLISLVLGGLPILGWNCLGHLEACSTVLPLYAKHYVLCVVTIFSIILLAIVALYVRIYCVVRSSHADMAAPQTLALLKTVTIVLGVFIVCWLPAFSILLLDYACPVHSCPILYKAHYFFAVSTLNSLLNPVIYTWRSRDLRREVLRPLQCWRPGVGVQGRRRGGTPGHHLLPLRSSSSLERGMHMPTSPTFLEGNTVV
How it was run: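 Compounds tested against S1P at its EC80 on membranes (2.5 μg/well) from a stable S1PR2-overexpressing line, pre-incubated with 1 μM GDP 15 min at 4 °C. Buffer: 20 mM Tris pH 7.5, 10 mM MgCl2, 100 mM NaCl, 0.1% fatty-acid-free BSA, 50 ug/ml saponin. Incubated 4 h at room temperature; [35S]GTPγS binding read by WGA SPA beads.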

HFL-1 cells [4] = assay: IL8 assay (S1P induced IL-8 production); type: cell-based; conditions: Homo sapiens, HFL1; S1P (1 μM) induced IL-8, HFL-1 cells, without HSA
Description: (§2) S1P is able to induce cytokines such as IL-8 in a process that is S1PR2 dependent (O'Sullivan et al, 2014; Bruennert et al, 2015). This assay is designed to test inhibitory activity of compounds on S1P induced IL-8 on HFL-1 cells, a human fetal lung fibroblast cell line.
Human Fetal Lung cells (HFL-1) are seeded in 96 well plates in growth medium (F12K+10% heat inactivated FBS+1% Pen/strep). After overnight incubation at 37° C., 5% CO2 cells are refreshed with starvation medium without HSA (F12K+1% FBS+1% Pen/strep). On day three, compounds are added (10 point serial dilution, 30 μM highest concentration, ⅓ dilution, 0.3% DMSO final) and plates are incubated for one hour at 37° C., 5% CO2. Subsequently S1P at 1 μM final concentration is added and plates are incubated for 16 to 24 hours at 37° C., 5% CO2 after which the supernatant was collected. IL-8 levels in the supernatant are determined with the IL-8 ELISA of R&D systems.

HFL-1 cells [5] = assay: IL8 assay in the presence of Human Serum Albumin; type: cell-based; conditions: HFL1, S1P (5 μM) induced IL-8, HFL-1 cells, with 2% HSA, read-out: HSA IL8 EC50
Description: as §2
To evaluate the influence of plasma protein binding of Sip as well as compound, the S1P induced IL-8 levels were evaluated in presence of 2% Human Serum Albumin (HSA, equivalent to 40% human serum). By adding 2% HSA, which affects both the activity of the compounds as well as the S1P potency, the physiological condition are reproduced and the shift in potency expected under in vivo serum conditions can be measured.
Human Fetal Lung cells (HFL-1) are seeded in 96 well plates in growth medium (F12K+10% heat inactivated FBS+1% Pen/strep). After overnight incubation at 37° C., 5% CO2 cells are refreshed with starvation medium with HSA (F12K+1% FBS+1% Pen/strep+1.95% HSA). On day three, compounds are added (10 point serial dilution, 30 μM highest concentration, 1/3 dilution, 0.3% DMSO final) and plates are incubated for 1 h at 37° C., 5% CO2. Subsequently S1P at 5 μM final concentration is added and plates are incubated for 16 to 24 h at 37° C., 5% CO2 after which the supernatant was collected. IL-8 levels in the supernatant are determined with the IL-8 ELISA of R&D systems.

T1 sequence (O95136 whole entry): as above

Row | SMILES | EC50 [1] [nM] | EC50 [2] [nM] | EC50 [3] [nM] | EC50 (S1PR2) [nM] | EC50 (HFL-1 cells [4]) [nM] | IC50 (HFL-1 cells [5]) [nM]
1 | Cc1cc(CNC(=O)Nc2cc(OCC(O)CO)nc(C(F)(F)F)c2)nnc1-c1cn(C)nc1C(F)(F)F (stereo not drawn) [Compound 5, 1-[2-(2,3-dihydroxypropoxy)-6-(trifluoromethyl)-4-pyridyl]-3-[[5-methyl-6-[1-methyl-3-(trifluoromethyl)pyrazol-4-yl]pyridazin-3-yl]methyl]urea] | 6610 | ≥ 19800 | ≥ 19800 | 11100 | 1540 | 9950
2 | CCOc1nc(C(F)(F)F)cc(NC(=O)NCc2cc(C)c(-c3cn(C)nc3C(F)(F)F)nn2)c1C [Compound 30, 1-[2-ethoxy-3-methyl-6-(trifluoromethyl)-4-pyridyl]-3-[[5-methyl-6-[1-methyl-3-(trifluoromethyl)pyrazol-4-yl]pyridazin-3-yl]methyl]urea] | 6.1 | 4480 | 3280 | 26.2 | 1.5 | 37.9
3 | Cc1cc(CNC(=O)Nc2cc(OCC3(C(F)(F)F)CC3)nc(C(F)(F)F)c2)nnc1-c1cn(C)nc1C(F)(F)F [Compound 39, 1-[[5-methyl-6-[1-methyl-3-(trifluoromethyl)pyrazol-4-yl]pyridazin-3-yl]methyl]-3-[2-(trifluoromethyl)-6-[[1-(trifluoromethyl)cyclopropyl]methoxy]-4-pyridyl]urea] | 219 | 6610 | 6610 | 1040 | 122 | 9950
4 | Cc1cc(CNC(=O)Nc2cc(OC3CCOCC3)nc(C(F)(F)F)c2)nnc1-c1cn(C)nc1C(F)(F)F [Compound 40, 1-[[5-methyl-6-[1-methyl-3-(trifluoromethyl)pyrazol-4-yl]pyridazin-3-yl]methyl]-3-[2-tetrahydropyran-4-yloxy-6-(trifluoromethyl)-4-pyridyl]urea] | 291 | 5150 | 6610 | 1080 | 142 | 3860

The remaining lines, values ahead:

Row | EC50 [1] [nM] | EC50 [2] [nM] | EC50 [3] [nM] | EC50 (S1PR2) [nM] | EC50 (HFL-1 cells [4]) [nM] | IC50 (HFL-1 cells [5]) [nM] | SMILES
5 | 22 | ≥ 19800 | ≥ 19800 | 306 | 82.9 | 169 | CCOc1ncc(NC(=O)NCc2cc(C)c(-c3cn(C)nc3C(F)(F)F)nn2)cc1Cl [Compound 8, 1-(5-chloro-6-ethoxy-3-pyridyl)-3-[[5-methyl-6-[1-methyl-3-(trifluoromethyl)pyrazol-4-yl]pyridazin-3-yl]methyl]urea]
6 | 10.9 | 6610 | ≥ 19800 | 35.8 | 4.6 | 29 | CCOc1cc(NC(=O)NCc2cc(C)c(-c3cn(C)nc3C(F)(F)F)nn2)cc(C#N)n1 [Compound 18, 1-(2-cyano-6-ethoxy-4-pyridyl)-3-[[5-methyl-6-[1-methyl-3-(trifluoromethyl)pyrazol-4-yl]pyridazin-3-yl]methyl]urea]
7 | 74.5 | ≥ 19800 | ≥ 19800 | 242 | 61.9 | 185 | CCOc1cc(NC(=O)NCc2cc(C)c(-c3cn(C)nc3C(F)(F)F)nn2)cc(C)n1 [Compound 35, 1-(2-ethoxy-6-methyl-4-pyridyl)-3-[[5-methyl-6-[1-methyl-3-(trifluoromethyl)pyrazol-4-yl]pyridazin-3-yl]methyl]urea]
8 | 40.2 | ≥ 19800 | ≥ 19800 | 109 | 31.8 | 198 | CCOc1nc(Cl)cc(NC(=O)NCc2cc(C)c(-c3cn(C)nc3C(F)(F)F)nn2)n1 [Compound 38, 1-(6-chloro-2-ethoxy-pyrimidin-4-yl)-3-[[5-methyl-6-[1-methyl-3-(trifluoromethyl)pyrazol-4-yl]pyridazin-3-yl]methyl]urea]
